Consider one molecule from US11167015B2, “Arginine and its use as a T cell modulator” (INSTITUTE FOR RESEARCH IN BIOMEDICINE, priority 2016, dated 2021).

The subject of experiment [1] is human naïve CD4+ T cells. Nature of the experiment: kinetic metabolome analysis of activated T cells. The settings on record: L-arginine in medium increased 4-fold (1 mM standard), all time points. The class given is cell-based.
Description: (B) Differential analysis of the glycolytic pathway between naïve CD4^+ T cells cultured in L-Arg medium or Ctrl medium, 96 h after activation. Log 2 fold changes of proteins and metabolites are color-coded. […] 3-P-Glycerate and 2-P-Glycerate could not be distinguished as they have the same mass. (C) 72 h-activated T cells were plated in fresh medium and glucose consumption was determined enzymatically after 24 h; n=9 from three donors. (D) Seahorse experiment performed with activated (96 h) T cells from one donor. Oligomycin was injected after 56 min, FCCP after 96 min, and antimycin (to inhibit the respiratory chain) after 136 min. Data are representative of 5 independent experiments with different donors.
(A) Human naïve CD4^+ T cells were activated in normal medium or in L-Arg medium. Nitric oxide formation was measured using DAF-FM diacetate at different time points.
Naïve CD4^+ T cells were either analyzed directly after isolation or at different time points after activation with CD3 and CD28 antibodies. Cells were washed twice in 96-well plates with 75 mM ammonium carbonate at pH 7.4 and snap frozen in liquid nitrogen. Metabolites were extracted three times with hot (>70° C.) 70% ethanol. Extracts were analyzed by flow injection—time of flight mass spectrometry on an Agilent 6550 QTOF instrument operated in the negative mode, as described previously (Fuhrer et al., 2011). Typically 5,000-12,000 ions with distinct mass-to-charge (m/z) ratio could be identified in each batch of samples. Ions were putatively annotated by matching their measured mass to that of the compounds listed by the KEGG database for Homo sapiens, allowing a tolerance of 0.001 Da. Only deprotonated ions (without adducts) were considered in the analysis. In case of multiple matching, such as in the case of structural isomers, all candidates were retained.
The test system of experiment [2] is human naïve CD4+ T cells. Nature of the experiment: proteome analysis of T cells activated in L-arginine-supplemented medium. The class given is cell-based. How it is done:
Samples were processed as described by (Hornburg et al., 2014). In brief, cell pellets were washed with PBS and lysed in 4% SDS, 10 mM HEPES (pH 8), 10 mM DTT. Cell pellets were heat-treated at 95° C. for 10 min and sonicated at 4° C. for 15 min (level 5, Bioruptor, Diagenode). Alkylation was performed in the dark for 30 min by adding 55 mM iodoacetamide (IAA). Proteins were precipitated overnight with acetone at −20° C. and resuspended the next day in 8 M Urea, 10 mM Hepes (pH 8). A two-step proteolytic digestion was performed. First, samples were digested at room temperature (RT) with LysC (1:50, w/w) for 3 h. Then, they were diluted 1:5 with 50 mM ammoniumbicarbonate (pH 8) and digested with trypsin (1:50, w/w) at RT overnight. The resulting peptide mixtures were acidified and loaded on C18 StageTips (Rappsilber et al., 2007). […]
Peptides were separated on an EASY-nLC 1000 HPLC system (Thermo Fisher Scientific, Odense, Denmark) coupled online to a Q Exactive mass spectrometer via a nanoelectrospray source (Thermo Fisher Scientific) (Michalski et al., 2011). […] Operational parameters were real-time monitored by the SprayQC software (Scheltema and Mann, 2012). […]
MaxQuant software (version 1.3.10.18) was used to analyze MS raw files (Cox and Mann, 2008). […] Nonlinear retention time alignment of all measured samples was performed in MaxQuant. […]

Turning to `N=C(N)NCCC[C@H](N)C(=O)O` [L-arginine], in experiment [1], the “Intracellular arginine levels compared to controls” value is given as 1.5-2.5 fold and the “Intracellular ornithine levels compared to controls” value was 1.5-2.5 fold. In addition, the Sirtuin-1 copy numbers result in experiment [2] (L-Arg-medium vs normal medium) is given as “up-regulates”. Besides, in experiment [2] (L-arginine-supplemented medium), the “number of proteins with significantly different expression (out of 7,243)” value was 202.
